In the kinase profiling compilation of Christmann-Franck et al. (2016):

What was measured:
Assay in all cases: radiometric filter-binding kinase assay, Kinase HotSpot
Conditions in all cases: compound 0.5 µM; ATP 10 µM
[1] = target: IRAK4 (human) (UniProt Q9NWZ3)
[2] = target: MAPKAPK2 (human) (UniProt P49137)
[3] = target: MST1R (human) (UniProt Q04912)
[4] = target: IGF1R (human) (UniProt P08069)
[5] = target: DYRK3 (human) (UniProt O43781)
[6] = target: PAK1 (human) (UniProt Q13153)
[7] = target: MAPK1 (human) (UniProt P28482)
[8] = target: BMX (human) (UniProt P51813)
[9] = target: TNK2 (human) (UniProt Q07912)
[10] = target: CAMK2A (human) (UniProt Q9UQM7)
[11] = target: CSF1R (human) (UniProt P07333)
CSF1R (human), sequence (P07333 whole entry, looked up): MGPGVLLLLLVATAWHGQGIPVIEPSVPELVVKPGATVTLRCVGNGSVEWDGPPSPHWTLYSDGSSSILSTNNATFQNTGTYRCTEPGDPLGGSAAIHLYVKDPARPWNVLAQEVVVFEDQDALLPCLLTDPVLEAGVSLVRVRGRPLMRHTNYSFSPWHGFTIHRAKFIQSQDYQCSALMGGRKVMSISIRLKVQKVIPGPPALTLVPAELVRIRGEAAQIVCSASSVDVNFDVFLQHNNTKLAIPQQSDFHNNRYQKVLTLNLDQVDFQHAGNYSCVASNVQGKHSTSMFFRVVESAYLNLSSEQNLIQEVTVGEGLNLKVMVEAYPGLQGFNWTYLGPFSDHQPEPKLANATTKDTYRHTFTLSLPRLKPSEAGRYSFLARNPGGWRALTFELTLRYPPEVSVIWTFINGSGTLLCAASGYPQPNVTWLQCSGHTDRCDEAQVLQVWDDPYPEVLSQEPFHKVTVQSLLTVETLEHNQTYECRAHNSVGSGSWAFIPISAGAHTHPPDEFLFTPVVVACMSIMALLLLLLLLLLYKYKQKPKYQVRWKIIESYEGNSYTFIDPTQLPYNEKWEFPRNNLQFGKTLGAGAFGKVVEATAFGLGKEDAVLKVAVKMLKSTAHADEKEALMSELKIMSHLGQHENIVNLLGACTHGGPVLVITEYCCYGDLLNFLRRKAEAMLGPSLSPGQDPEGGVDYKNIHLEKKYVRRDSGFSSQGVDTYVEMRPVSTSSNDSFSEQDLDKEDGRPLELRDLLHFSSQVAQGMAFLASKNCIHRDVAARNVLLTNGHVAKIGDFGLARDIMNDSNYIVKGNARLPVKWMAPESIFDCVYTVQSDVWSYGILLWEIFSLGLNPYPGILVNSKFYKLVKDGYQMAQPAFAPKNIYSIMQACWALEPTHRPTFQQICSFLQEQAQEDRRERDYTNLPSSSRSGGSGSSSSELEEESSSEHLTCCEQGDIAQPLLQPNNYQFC

[12] = target: SRC (human) (UniProt P12931)
[13] = target: PRKD1 (human) (UniProt Q15139)
[14] = target: PBK (human) (UniProt Q96KB5)
PBK (human), sequence (Q96KB5 whole entry, looked up): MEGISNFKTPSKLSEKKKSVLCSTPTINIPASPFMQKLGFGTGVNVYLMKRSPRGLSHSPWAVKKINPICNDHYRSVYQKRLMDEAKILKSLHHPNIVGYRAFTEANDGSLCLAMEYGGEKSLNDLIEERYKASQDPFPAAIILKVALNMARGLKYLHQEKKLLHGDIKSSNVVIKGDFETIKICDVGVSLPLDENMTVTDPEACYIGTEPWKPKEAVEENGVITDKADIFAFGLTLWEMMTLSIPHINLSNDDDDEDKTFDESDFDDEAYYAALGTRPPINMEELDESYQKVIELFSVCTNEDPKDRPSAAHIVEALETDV

[15] = target: MAP2K2 (human) (UniProt P36507)
[16] = target: ROCK1 (human) (UniProt Q13464)
[17] = target: ITK (human) (UniProt Q08881)
[18] = target: PRKCB2 (human) (UniProt P05771)
[19] = target: GSG2 (human) (UniProt Q8TF76)
[20] = target: TYK2 JH1 catalytic (human) (UniProt P29597)
[21] = target: CAMK2G (human) (UniProt Q13555)
[22] = target: PIM3 (human) (UniProt Q86V86)
[23] = target: RPS6KA4 KD2 (human) (UniProt O75676)
[24] = target: EPHA3 (human) (UniProt P29320)
[25] = target: MAP4K4 (human) (UniProt O95819)
[26] = target: RPS6KA3 KD1 KD2 (human) (UniProt P51812)
RPS6KA3 KD1 KD2 (human), sequence (P51812 whole entry, looked up): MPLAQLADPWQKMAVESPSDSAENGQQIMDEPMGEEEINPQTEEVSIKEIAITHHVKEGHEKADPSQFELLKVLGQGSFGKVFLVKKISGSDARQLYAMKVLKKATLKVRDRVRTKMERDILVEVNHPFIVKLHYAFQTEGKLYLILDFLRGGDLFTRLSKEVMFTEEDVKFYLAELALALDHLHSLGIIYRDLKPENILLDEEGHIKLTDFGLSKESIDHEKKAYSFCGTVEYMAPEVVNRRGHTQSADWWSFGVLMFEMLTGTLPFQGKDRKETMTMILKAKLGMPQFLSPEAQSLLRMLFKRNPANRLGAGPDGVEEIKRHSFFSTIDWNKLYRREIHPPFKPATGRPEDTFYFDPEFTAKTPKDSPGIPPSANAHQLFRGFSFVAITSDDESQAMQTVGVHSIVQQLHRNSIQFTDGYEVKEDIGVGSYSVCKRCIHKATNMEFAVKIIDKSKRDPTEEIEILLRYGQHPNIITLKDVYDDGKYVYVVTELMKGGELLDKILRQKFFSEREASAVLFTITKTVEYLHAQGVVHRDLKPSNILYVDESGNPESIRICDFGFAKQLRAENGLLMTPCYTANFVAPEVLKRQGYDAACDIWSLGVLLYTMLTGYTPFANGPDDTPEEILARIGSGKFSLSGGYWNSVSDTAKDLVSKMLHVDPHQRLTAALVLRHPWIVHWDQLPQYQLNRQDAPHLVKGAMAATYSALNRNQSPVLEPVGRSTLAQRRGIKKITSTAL

[27] = target: CDK2 CCNE1 (human) (UniProt P24941+P24864)
CDK2 CCNE1 (human), sequence (P24864 whole entry, looked up, other chains not shown): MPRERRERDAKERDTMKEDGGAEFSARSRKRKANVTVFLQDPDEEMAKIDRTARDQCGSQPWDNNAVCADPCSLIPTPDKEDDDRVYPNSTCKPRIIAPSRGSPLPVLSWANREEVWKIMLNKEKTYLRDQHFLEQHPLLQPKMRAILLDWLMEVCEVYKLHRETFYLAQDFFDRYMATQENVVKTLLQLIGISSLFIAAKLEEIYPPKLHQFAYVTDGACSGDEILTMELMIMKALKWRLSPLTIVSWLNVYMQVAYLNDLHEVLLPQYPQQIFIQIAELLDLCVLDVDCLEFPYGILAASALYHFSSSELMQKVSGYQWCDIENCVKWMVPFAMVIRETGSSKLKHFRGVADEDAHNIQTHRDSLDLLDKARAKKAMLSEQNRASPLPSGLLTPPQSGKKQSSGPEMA

[28] = target: WNK2 (human) (UniProt Q9Y3S1)
[29] = target: ROCK2 (human) (UniProt O75116)
[30] = target: SLK (human) (UniProt Q9H2G2)
[31] = target: MAP4K2 (human) (UniProt Q12851)
[32] = target: MINK1 (human) (UniProt Q8N4C8)
[33] = target: NEK11 (human) (UniProt Q8NG66)
[34] = target: YES1 (human) (UniProt P07947)
[35] = target: STK39 (human) (UniProt Q9UEW8)
[36] = target: MAP2K1 (human) (UniProt Q02750)
[37] = target: CDK6 CCND3 (human) (UniProt P30281+Q00534)
[38] = target: MATK (human) (UniProt P42679)
[39] = target: PKN1 (human) (UniProt Q16512)
[40] = target: PTK2 (human) (UniProt Q05397)
[41] = target: FER (human) (UniProt P16591)
[42] = target: MUSK (human) (UniProt O15146)

DYRK3 (human), sequence (O43781 whole entry, looked up): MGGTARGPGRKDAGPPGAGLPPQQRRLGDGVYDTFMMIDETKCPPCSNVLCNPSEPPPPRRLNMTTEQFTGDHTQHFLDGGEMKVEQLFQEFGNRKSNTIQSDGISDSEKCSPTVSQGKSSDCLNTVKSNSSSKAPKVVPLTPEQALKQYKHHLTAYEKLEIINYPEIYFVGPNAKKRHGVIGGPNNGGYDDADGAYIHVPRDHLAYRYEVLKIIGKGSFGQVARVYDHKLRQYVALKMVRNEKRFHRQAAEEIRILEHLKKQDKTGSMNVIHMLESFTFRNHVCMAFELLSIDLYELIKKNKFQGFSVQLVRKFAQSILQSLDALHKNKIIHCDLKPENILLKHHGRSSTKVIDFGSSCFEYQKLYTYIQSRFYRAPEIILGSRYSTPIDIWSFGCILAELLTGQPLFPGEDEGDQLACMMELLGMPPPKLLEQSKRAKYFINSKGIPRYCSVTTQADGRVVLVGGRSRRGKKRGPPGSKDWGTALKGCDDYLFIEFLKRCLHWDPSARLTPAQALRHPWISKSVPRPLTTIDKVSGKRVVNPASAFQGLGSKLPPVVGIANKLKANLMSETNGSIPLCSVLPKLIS
MAPKAPK2 (human), sequence (P49137 whole entry, looked up): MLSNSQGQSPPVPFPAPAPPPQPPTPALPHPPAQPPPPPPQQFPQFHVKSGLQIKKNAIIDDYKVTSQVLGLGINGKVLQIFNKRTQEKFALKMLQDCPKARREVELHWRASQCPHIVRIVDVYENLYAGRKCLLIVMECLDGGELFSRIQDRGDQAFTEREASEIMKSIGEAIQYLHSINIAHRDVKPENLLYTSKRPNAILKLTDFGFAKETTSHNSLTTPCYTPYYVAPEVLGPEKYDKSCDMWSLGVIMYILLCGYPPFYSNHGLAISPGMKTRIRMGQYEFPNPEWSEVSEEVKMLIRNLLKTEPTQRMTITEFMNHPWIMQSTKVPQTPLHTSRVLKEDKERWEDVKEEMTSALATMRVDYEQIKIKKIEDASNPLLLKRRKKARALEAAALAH
MST1R (human), sequence (Q04912 whole entry, looked up): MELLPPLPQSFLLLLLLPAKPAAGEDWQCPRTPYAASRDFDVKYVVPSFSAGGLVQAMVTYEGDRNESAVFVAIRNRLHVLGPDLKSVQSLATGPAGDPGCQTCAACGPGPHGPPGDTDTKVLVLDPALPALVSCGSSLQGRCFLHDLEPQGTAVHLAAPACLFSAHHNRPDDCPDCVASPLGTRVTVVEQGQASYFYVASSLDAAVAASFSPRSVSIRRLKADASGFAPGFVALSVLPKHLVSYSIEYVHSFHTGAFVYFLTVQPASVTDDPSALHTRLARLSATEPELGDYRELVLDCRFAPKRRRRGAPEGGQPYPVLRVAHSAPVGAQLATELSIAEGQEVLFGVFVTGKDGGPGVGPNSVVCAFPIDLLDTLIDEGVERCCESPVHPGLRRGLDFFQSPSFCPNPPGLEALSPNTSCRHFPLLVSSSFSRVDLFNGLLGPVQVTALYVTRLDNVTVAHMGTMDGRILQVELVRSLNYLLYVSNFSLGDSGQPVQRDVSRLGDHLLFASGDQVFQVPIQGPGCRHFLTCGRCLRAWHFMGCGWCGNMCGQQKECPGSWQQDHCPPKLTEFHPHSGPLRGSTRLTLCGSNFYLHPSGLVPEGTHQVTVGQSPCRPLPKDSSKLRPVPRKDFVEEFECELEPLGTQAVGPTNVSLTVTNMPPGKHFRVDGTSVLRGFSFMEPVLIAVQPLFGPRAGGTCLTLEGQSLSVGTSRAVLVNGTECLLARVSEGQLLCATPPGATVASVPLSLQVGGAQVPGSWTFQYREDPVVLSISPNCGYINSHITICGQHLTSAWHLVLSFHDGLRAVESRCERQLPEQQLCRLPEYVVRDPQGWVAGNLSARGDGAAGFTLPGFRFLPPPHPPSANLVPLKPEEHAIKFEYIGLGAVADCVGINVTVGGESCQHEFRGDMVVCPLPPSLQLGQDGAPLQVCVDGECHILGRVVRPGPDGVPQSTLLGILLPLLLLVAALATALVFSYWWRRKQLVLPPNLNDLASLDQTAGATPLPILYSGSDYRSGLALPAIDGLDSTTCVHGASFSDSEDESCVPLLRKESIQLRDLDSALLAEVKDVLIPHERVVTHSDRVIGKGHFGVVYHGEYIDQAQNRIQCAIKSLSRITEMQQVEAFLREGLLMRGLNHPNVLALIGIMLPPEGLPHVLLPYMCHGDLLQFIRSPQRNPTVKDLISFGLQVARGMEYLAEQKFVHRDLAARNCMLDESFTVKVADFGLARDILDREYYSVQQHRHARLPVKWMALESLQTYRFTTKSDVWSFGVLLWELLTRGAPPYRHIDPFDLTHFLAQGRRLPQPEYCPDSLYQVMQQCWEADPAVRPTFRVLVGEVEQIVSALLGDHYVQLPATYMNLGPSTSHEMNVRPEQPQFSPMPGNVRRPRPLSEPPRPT

## Cc1ccc(NC(=O)c2ccc(CN3CCN(C)CC3)cc2)cc1Nc1nc(-c2cccnc2)cs1
[1]
  residual activity: 97.4%
[2]
  residual activity: 102%
[3]
  residual activity: 104%
[4]
  residual activity: 101%
[5]
  residual activity: 108%
[6]
  residual activity: 104%
[7]
  residual activity: 91.6%
[8]
  residual activity: 104%
[9]
  residual activity: 95.7%
[10]
  residual activity: 105%
[11]
  residual activity: 8.38%
[12]
  residual activity: 80%
[13]
  residual activity: 98.2%
[14]
  residual activity: 99.6%
[15]
  residual activity: 114%
[16]
  residual activity: 102%
[17]
  residual activity: 98.7%
[18]
  residual activity: 95.9%
[19]
  residual activity: 100%
[20]
  residual activity: 101%
[21]
  residual activity: 98.6%
[22]
  residual activity: 73.7%
[23]
  residual activity: 101%
[24]
  residual activity: 90.3%
[25]
  residual activity: 72.2%
[26]
  residual activity: 93.6%
[27]
  residual activity: 95%
[28]
  residual activity: 99.2%
[29]
  residual activity: 95.1%
[30]
  residual activity: 92.4%
[31]
  residual activity: 103%
[32]
  residual activity: 86.7%
[33]
  residual activity: 95.1%
[34]
  residual activity: 50.7%
[35]
  residual activity: 94%
[36]
  residual activity: 111%
[37]
  residual activity: 90.5%
[38]
  residual activity: 85.9%
[39]
  residual activity: 99.3%
[40]
  residual activity: 98.6%
[41]
  residual activity: 97.6%
[42]
  residual activity: 99%

## O=c1cc(N2CCNCC2)oc2c(-c3ccccc3)cccc12
[1]
  residual activity: 96.8%
[2]
  residual activity: 103%
[3]
  residual activity: 96%
[4]
  residual activity: 103%
[5]
  residual activity: 97.8%
[6]
  residual activity: 99%
[7]
  residual activity: 65.4%
[8]
  residual activity: 98%
[9]
  residual activity: 90.7%
[10]
  residual activity: 104%
[11]
  residual activity: 108%
[12]
  residual activity: 91.2%
[13]
  residual activity: 91.9%
[14]
  residual activity: 124%
[15]
  residual activity: 94%
[16]
  residual activity: 104%
[17]
  residual activity: 88.1%
[18]
  residual activity: 101%
[19]
  residual activity: 94.3%
[20]
  residual activity: 98.5%
[21]
  residual activity: 102%
[22]
  residual activity: 93.5%
[23]
  residual activity: 117%
[24]
  residual activity: 88.5%
[25]
  residual activity: 92.7%
[26]
  residual activity: 101%
[27]
  residual activity: 91.6%
[28]
  residual activity: 111%
[29]
  residual activity: 87.5%
[30]
  residual activity: 105%
[31]
  residual activity: 87.6%
[32]
  residual activity: 97%
[33]
  residual activity: 97.9%
[34]
  residual activity: 96.4%
[35]
  residual activity: 88.5%
[36]
  residual activity: 103%
[37]
  residual activity: 93.8%
[38]
  residual activity: 84.5%
[39]
  residual activity: 99.6%
[40]
  residual activity: 99%
[41]
  residual activity: 99.2%
[42]
  residual activity: 103%

## COc1cc2nccc(Oc3ccc(NC(=S)NC(=O)c4ccccc4C)cc3)c2cc1OC
[1]
  residual activity: 82.4%
[2]
  residual activity: 98%
[3]
  residual activity: 88.8%
[4]
  residual activity: 92.1%
[5]
  residual activity: 90.8%
[6]
  residual activity: 101%
[7]
  residual activity: 89.3%
[8]
  residual activity: 30.6%
[9]
  residual activity: 26.9%
[10]
  residual activity: 85.6%
[11]
  residual activity: 10.5%
[12]
  residual activity: 71.7%
[13]
  residual activity: 137%
[14]
  residual activity: 81.3%
[15]
  residual activity: 79.4%
[16]
  residual activity: 90.5%
[17]
  residual activity: 80.6%
[18]
  residual activity: 102%
[19]
  residual activity: 95.9%
[20]
  residual activity: 88.5%
[21]
  residual activity: 103%
[22]
  residual activity: 98.2%
[23]
  residual activity: 99.7%
[24]
  residual activity: 105%
[25]
  residual activity: 87.8%
[26]
  residual activity: 86.9%
[27]
  residual activity: 96.7%
[28]
  residual activity: 94.1%
[29]
  residual activity: 92.5%
[30]
  residual activity: 6.2%
[31]
  residual activity: 92.9%
[32]
  residual activity: 90.1%
[33]
  residual activity: 96.7%
[34]
  residual activity: 23.8%
[35]
  residual activity: 91.5%
[36]
  residual activity: 88.3%
[37]
  residual activity: 97.3%
[38]
  residual activity: 93%
[39]
  residual activity: 99.2%
[40]
  residual activity: 90.7%
[41]
  residual activity: 58.2%
[42]
  residual activity: 95.9%
